Test results as given in patent US20060019945A1, “Granzyme b inhibitors” (priority 2002, published 2006).

Biological target: T1, human granzyme B (Homo sapiens, UniProt P10144)
T1 construct: the first amino acid of mature granzyme B; hexa-histidine tag (N, cleaved yes); Factor Xa recognition site Ile-Glu-Gly-Arg (N, cleaved yes); honeybee melittin secretion signal (N, cleaved yes); made in house; host or cells: Sf9 insect cells (baculovirus, Bac-to-Bac)
Assay: Fluorogenic assay for granzyme B (Ac-IEPD-AMC substrate)
Format: biochemical
Conditions: recombinant granzyme B, substrate Ac-IEPD-AMC 10 μM, pH 7.5, 25° C.; read-out: Gzm B Ki
From the text: Plasmids pMelBac and the TA Cloning Kit (pCR2.1) were purchased from Invitrogen (Carlsbad, Calif.). The Bac-to-Bac Baculovirus Expression System and all cell culture supplies were from Life Technologies (Gaithersburg, Md.). The human granzyme B protease has been identified and is known in the art. See, for example, Poe, et al., J. Biol. Chem. 266, 98-103. A vector was generated for secreted protein expression in the Bac-to-Bac system. The honeybee melittin secretion signal was amplified from pMelBac by PCR with primers 5′-GTGT AGATCTATGAAATTCTTAGTCAACG-3′ and 5′-TTCAGCAGAGTCGACTCCAAG-3′. The amplified product contained a BglII site upstream of the melittin secretion signal and spanned the multiple cloning site of the vector. The fragment was digested with BglII and EcoRI and subcloned into BamHI and EcoRI digested pFastBac. The resulting vector was designated pSecBac. Activatable tagged human granzyme B was cloned into pSecBac in two sequential steps. Firstly, mature granzyme B was amplified by PCR with primers 5′-GGATCC ATC GAA GGT CGT ATC ATC GGAGGACATGAGGCC-3′ and 5′-AAGCTTTTAGTAGCGCTTCATGGTCTTCTTTATCC-3′ and cloned into pCR2.1. In the sense primer, the bold type sequence coding for the Factor Xa recognition site, Ile-Glu-Gly-Arg, was inserted upstream of isoleucine 21 (referred to as ILE 16 in this paper using the numbering scheme for this family of serine proteases is traditionally based on the zymogen, chymotrypsinogen), the first amino acid of mature granzyme B. Secondly, hexa-histidine tagged, activatable granzyme B was amplified from the granzyme B/pCR2.1 clone by PCR using primers 5′-GGAAGATCTCATCATCATCATCATCATGGATCCATCGAAGGTCGTATC-3′ and 5′-CCT GAA TTC TTA GTA GCG TIT CAT GGT CTT CTT TAT CC-3′. The amplified product contained a Bali site upstream of the hex-histidine tag and contained the Factor Xa recognition sequence. This fragment was digested with Bali and ECOR and subcloned into BamHI and EcoRI digested pSecBac. The completed vector generated a recombinant baculovirus in Gibco BRL's Bac-to-Bac system, which would produce a secreted, 6-histidine tagged granzyme B. For protein expression, sf9 cells were grown to a density of 1.5×10^6 cells ml^−1 in Grace's medium (Cat. 11605-094) supplemented with 10% fetal calf serum and penicillin-streptomycin-glutamine (Cat. 10378-024). Prior to the addition of virus, cells were centrifuged at 1000×g for 15 minutes and resuspended to the same density in fresh growth medium containing recombinant viral stock and SP Sepharose beads (4 ml resin per liter of culture). After 72 hours of induction at 27° C., the resin was collected in a 50 micron Nylon mesh (PGC Scientifics), extensively washed with 50 mM Mes.NaOH, 0.3 M Na Cl, pH 6.6 and poured onto a column. The protein was eluted using a linear gradient (0.3 to 1.0 M) of NaCl. Fractions containing granzyme B activity were identified, combined and concentrated and then diluted in 20 mM Tris.HCl, pH 8.0. The sample was readjusted to a final pH 8.0, CaCl2 (3 mM final concentration) and factor Xa (Pharmacia, 10 units per mg of protein) were added, and incubated for 18 hours at room temperature to generate active granzyme B. Under these conditions, complete cleavage is achieved. The recombinant granzyme B was purified from the cleavage mixture using a 1 ml HiTrap SP column (Pharmacia). The yield can be as much as 4-5 mg of purified granzyme B per liter of culture. Mass spectral analysis identifies one major peak at 27,466 Da (other components of 27,320 Da and 26,630 Da were also consistently observed). Since the combined mass of the 227-amino acids defined by sequence analysis only accounts for 25,511.58 Da, we concluded that preparations of recombinant granzyme B purified with this method are more homogenous and less glycosylated than preparations of native granzyme B purified from NK cell granules. […]

T1 sequence (P10144 21-247): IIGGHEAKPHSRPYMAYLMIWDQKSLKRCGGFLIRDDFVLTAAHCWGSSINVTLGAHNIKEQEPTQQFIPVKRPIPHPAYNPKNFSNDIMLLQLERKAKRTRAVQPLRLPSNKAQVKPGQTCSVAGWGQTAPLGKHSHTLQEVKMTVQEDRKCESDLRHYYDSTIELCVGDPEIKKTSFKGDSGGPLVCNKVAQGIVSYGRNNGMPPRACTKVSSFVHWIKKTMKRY

Row | Compound | Ki [µM]
1 | CC[C@H](C)[C@H](NC(C)=O)C(=O)N[C@H]1CCc2cccc3c2N(C1=O)[C@H](C(=O)NCc1nn[nH]n1)C3 [Example 1, (2S,5S)-5-[(N-acetyl-L-isoleucyl)amino]-4-oxo-N-(1H-tetraazol-5-ylmethyl)-1,2,4,5,6,7-hexahydroazepino[3,2,1-hi]indole-2-carboxamide] | 0.074
2 | CC[C@H](C)[C@H](NC(C)=O)C(=O)N[C@H]1CCc2cccc3c2N(C1=O)[C@H](C(=O)NCc1cn2cccnc2n1)C3 [Example 19] | 0.788
3 | CC(C)[C@@H](C(=O)N[C@H]1CCc2cccc3c2N(C1=O)[C@H](C(=O)NCc1nn[nH]n1)C3)c1ccccn1 [Example 21] | 0.41
4 | CC[C@H](C)[C@H](NC(=O)CN(C)C)C(=O)N[C@H]1CCc2cccc3c2N(C1=O)[C@H](C(=O)NCc1nn[nH]n1)C3 [Example 25] | 0.203
5 | CC(=O)N1CSC(C)(C)[C@H]1C(=O)N[C@H]1CCc2cccc3c2N(C1=O)[C@H](C(=O)NCc1c[nH]nn1)C3 [Example 29] | 3.88
6 | CC[C@H](C)[C@@H](C(=O)N[C@H]1CCc2cccc3c2N(C1=O)[C@H](C(=O)NCc1c[nH]nn1)C3)N1CCCC1=O [Example 30] | 0.112
7 | O=C(CC1CCCC1)N[C@H]1CCc2cccc3c2N(C1=O)[C@H](C(=O)NCc1c[nH]nn1)C3 [Example 31] | 1.84
8 | CC(=O)N[C@H](C(=O)N[C@H]1CCc2cccc3c2N(C1=O)[C@H](C(=O)NCc1c[nH]nn1)C3)C1CC1 [Example 32] | 1.02
9 | CC(=O)N[C@H](C(=O)N[C@H]1CCc2cccc3c2N(C1=O)[C@H](C(=O)NCc1c[nH]nn1)C3)C1CCCC1 [Example 33] | 0.071

Stronger by Ki, values ahead:

Row | Ki [µM] | Compound
10 | 0.038 | CC[C@H](C)[C@H](NC(C)=O)C(=O)N[C@H]1CCc2cccc3c2N(C1=O)[C@H](C(=O)NCc1c[nH]nn1)C3 [Example 2, (2S,5S)-5-[(N-acetyl-L-isoleucyl)amino]-4-oxo-N-(1H-1,2,3-triazol-4-ylmethyl)-1,2,4,5,6,7-hexahydroazepino[3,2,1-hi]indole-2-carboxamide]
11 | 0.013 | CC[C@H](C)[C@H](NC(=O)Cc1ccccc1)C(=O)N[C@H]1CCc2cccc3c2N(C1=O)[C@H](C(=O)NCc1c[nH]nn1)C3 [Example 4, (2S,5S)-4-oxo-5-{[N-(phenylacetyl)-L-isoleucyl]amino}-N-(1H-1,2,3-triazol-4-ylmethyl)-1,2,4,5,6,7-hexahydroazepino[3,2,1-hi]indole-2-carboxamide]
12 | 0.036 | CC[C@H](C)[C@H](NC(=O)Cc1cccc(F)c1F)C(=O)N[C@H]1CCc2cccc3c2N(C1=O)[C@H](C(=O)NCc1nn[nH]n1)C3 [Example 24]
13 | 0.017 | CC[C@H](C)[C@H](NC(=O)Cc1csc2ccccc12)C(=O)N[C@H]1CCc2cccc3c2N(C1=O)[C@H](C(=O)NCc1nn[nH]n1)C3 [Example 26]
14 | 0.045 | CC[C@H](C)[C@H](NC(=O)CN(C)C)C(=O)N[C@H]1CCc2cccc3c2N(C1=O)[C@H](C(=O)NCc1c[nH]nn1)C3 [Example 27]
15 | 0.007 | CC[C@H](C)[C@H](NC(=O)Cc1csc2ccccc12)C(=O)N[C@H]1CCc2cccc3c2N(C1=O)[C@H](C(=O)NCc1c[nH]nn1)C3 [Example 28]
